# Biological target: T1, Human ATX protein (Homo sapiens, UniProt Q13822)
# T1 construct: made in house
# Experiment: ATX biochemical FRET assay with FS-3 substrate
# Conditions: FRET substrate FS-3 2 μM, ATX 1.0 μg/mL, 30 minutes pre-incubation, 2 hours at room temperature; read-out: IC50
# Excerpt: ATX (Autotaxin) is a 125 KDa glycoprotein with lysophospholipase D (LPLD) activity that generates the bioactive lipid lysophosphatidic acid (LPA) from lysophosphatidylcholine (LPC). The ATX biochemical assay utilizes a FRET (fluorescence resonance energy transfer) technology platform. The fluorescence signal of FRET substrate FS-3 is quenched due to intra-molecular FRET of a fluorophore to a non-fluorescing quencher (Ferguson, C. G., et al., Org Lett. 2006 May 11; 8(10): 2023-2026, which is incorporated by reference in its entirety). ATX catalyzes the hydrolysis of the substrate which separates the dabsyl quencher from the fluorescein reporter, which becomes fluorescent. The reaction is monitored by a SpectraMax M5 (Molecular Devices, Sunnyvale, Calif.) with at excitation wavelength 485 nm and emission wavelength […].
# Fatty acid free-BSA (Sigma A8806): 10 mg/mL in H2O, stored at 4° C.
# 2×ATX assay buffer: 100 mM Tris, 280 mM NaCl, 10 mM KCl, 2 mM CaCl2, 2 mM MgCl2, pH 7.4.
# Human ATX protein: expressed and purified in house. Stored at −80° C.
# Substrate FS-3 (Echelon, L-2000): 100 μg in 77.74 μL H2O (1 mM stock), stored at −20° C.
# 384-well flat bottom plates—Corning #3575.
# Compound dilution—All compounds were provided at 10 mM in 100% DMSO. In the first well, 2 μL of 10 mM compound was added to 78 μL of DMSO (1:40 dilution). In subsequent wells 3-fold dilution (total 10 dilutions) were performed.
# 1×ATX assay buffer was made up with a final concentration of 1 mg/mL fatty acid free-BSA using 2×ATX assay buffer, 10 mg/ml fatty acid free-BSA and ddH2O.
# ATX protein was diluted with 1×ATX assay buffer to a concentration of 1.32 μg/mL (1.32×). 38 μL was added per well to the assay plate. The final concentration of ATX in the reaction as 1.0 μg/mL.
# 2 μL per well of compounds was transferred to provide the desired concentration. The plate was centrifuged, then incubated at room temperature for 30 minutes on the shaker.
# Then, 10 μL was added per well to the assay plate. […] The plate was centrifuged. The plate was kept shaking at room temperature for 2 hours. Because FS-3 substrate is light sensitive, plates were kept covered and protected from light.
# Fluorescence was measured using SpectraMax M5 (excitation at 485 nm/emission at 538 nm, top read).
row,Compound,IC50
1,"C[C@H](N[C@H]1C[C@@H](C(=O)O)C1(C)C)c1ccc2ccc(O[C@H]3CC[C@@H](C)CC3)c(C(F)(F)F)c2c1 [Example 114b, (1R,3S)-2,2-dimethyl-3-(((S)-1-(7-((cis-4-methylcyclohexyl)oxy)-8-(trifluoromethyl)naphthalen-2-yl)ethyl)amino)cyclobutanecarboxylic acid]",≤ 0.1 µM
2,"O=C(O)[C@H]1CC[C@@H](NCc2ccc3ccc(O[C@H]4CC[C@@H](C(F)(F)F)CC4)c(C(F)(F)F)c3c2)CC1 [Example 124, cis-4-(((8-(trifluoromethyl)-7-((cis-4-(trifluoromethyl)cyclohexyl)oxy)naphthalen-2-yl)methyl)amino)cyclohexanecarboxylic acid]",≤ 0.25 µM
3,"CC(N[C@@H]1C[C@H](C(=O)O)C1(C)C)c1ccc2ccc(O[C@H]3CC[C@@H](C)CC3)c(C(F)(F)F)c2c1 (stereo partly drawn) [Example 112, (1S,3R)-2,2-dimethyl-3-((1-(7-((cis-4-methylcyclohexyl)oxy)-8-(trifluoromethyl)naphthalen-2-yl)ethyl)amino)cyclobutanecarboxylic acid]",≤ 0.1 µM
4,"CCC(N[C@H]1C[C@@H](C(=O)O)C1(C)C)c1ccc2ccc(O[C@H]3CC[C@@H](C(F)(F)F)CC3)c(Cl)c2c1 (stereo partly drawn) [Example 32, (1R,3S)-3-((1-(8-chloro-7-((cis-4-(trifluoromethyl)cyclohexyl)oxy)naphthalen-2-yl)propyl)amino)-2,2-dimethylcyclobutanecarboxylic acid]",≤ 0.5 µM
5,"CC(N[C@H]1CC[C@@H](C(=O)O)CC1)c1ccc2ccc(O[C@H]3CC[C@@H](C)CC3)c(C(F)(F)F)c2c1 (stereo partly drawn) [Example 142, cis-4-((1-(7-((cis-4-methylcyclohexyl)oxy)-8-(trifluoromethyl)naphthalen-2-yl)ethyl)amino)cyclohexanecarboxylic acid]",≤ 0.1 µM
6,"CC(C)(C)[C@H]1CC[C@H](Nc2cc3cc(C(=O)NC45CCC(C(=O)O)(CC4)CC5)ccc3cn2)CC1 [Example 152, 4-(3-((trans-4-(tert-butyl)cyclohexyl)amino)isoquinoline-6-carboxamido)bicyclo[2.2.2]octane-1-carboxylic acid]",≤ 0.1 µM
7,"C[C@@H](N[C@H]1CC[C@@H](C(=O)O)CC1)c1ccc2ccc(O[C@H]3CC[C@@H](C(F)(F)F)CC3)c(C(F)(F)F)c2c1 [Example 136b, cis-4-(((R)-1-(8-(trifluoromethyl)-7-((cis-4-(trifluoromethyl)cyclohexyl)oxy)naphthalen-2-yl)ethyl)amino)cyclohexanecarboxylic acid]",≤ 0.25 µM
8,"CC(N[C@H]1C[C@@H](C(=O)O)C1(C)C)c1ccc2ccc(O[C@H]3CC[C@@H](C)CC3)c(C(F)(F)F)c2c1 (stereo partly drawn) [Example 113, (1R,3S)-2,2-dimethyl-3-((1-(7-((cis-4-methylcyclohexyl)oxy)-8-(trifluoromethyl)naphthalen-2-yl)ethyl)amino)cyclobutanecarboxylic acid]",≤ 0.1 µM
9,"CC[C@H]1CC[C@@H](Oc2ccc3ccc(CNC4CC(C(=O)O)C4(C)C)cc3c2C(F)(F)F)CC1 (stereo partly drawn) [Example 54, 3-(((7-((cis-4-ethylcyclohexyl)oxy)-8-(trifluoromethyl)naphthalen-2-yl)methyl)amino)-2,2-dimethylcyclobutanecarboxylic acid]",≤ 0.5 µM
10,"O=C(O)C1CCC(NCc2ccc3ccc(O[C@H]4CC[C@@H](C(F)(F)F)CC4)c(C(F)(F)F)c3c2)C1 (stereo partly drawn) [Example 127, 3-(((8-(trifluoromethyl)-7-((cis-4-(trifluoromethyl)cyclohexyl)oxy)naphthalen-2-yl)methyl)amino)cyclopentanecarboxylic acid]",≤ 0.5 µM
11,"CC(C)[C@H]1CC[C@@H](Oc2ccc3ccc(CN4CCC(C(=O)O)CC4)cc3c2C(F)(F)F)CC1 [Example 106, 1-((7-((cis-4-isopropylcyclohexyl)oxy)-8-(trifluoromethyl)naphthalen-2-yl)methyl)piperidine-4-carboxylic acid]",≤ 0.5 µM
12,"CC[C@H]1CC[C@@H](Oc2ccc3ccc(C(C)N4CCC(C(=O)O)CC4)cc3c2C(F)(F)F)CC1 (stereo partly drawn) [Example 57, 1-(1-(7-((cis-4-ethylcyclohexyl)oxy)-8-(trifluoromethyl)naphthalen-2-yl)ethyl)piperidine-4-carboxylic acid]",≤ 0.1 µM
13,"CC[C@H]1CC[C@@H](Oc2ccc3ccc([C@@H](C)N[C@H]4C[C@H](C(=O)O)C4(C)C)cc3c2C(F)(F)F)CC1 [Example 118c, (1S,3S)-3-(((R)-1-(7-((cis-4-ethylcyclohexyl)oxy)-8-(trifluoromethyl)naphthalen-2-yl)ethyl)amino)-2,2-dimethylcyclobutanecarboxylic acid]",≤ 0.25 µM
14,"CC1(C)[C@@H](NCc2ccc3ccc(O[C@H]4CC[C@@H](C)CC4)c(C#N)c3c2)C[C@H]1C(=O)O (relative stereo) [Example 99, Cis-3-(((8-cyano-7-((cis-4-methylcyclohexyl)oxy)naphthalen-2-yl)methyl)amino)-2,2-dimethylcyclobutanecarboxylic acid]",≤ 0.25 µM

# Same assay, conditions: IC50, FRET substrate FS-3 2 μM, ATX 1.0 μg/mL, 30 minutes pre-incubation, 2 hours at room temperature
row,Compound,IC50
1,"C[C@H]1CC[C@@H](Oc2ccc3ccc(CN4C5CCCC4CC(C(=O)O)C5)cc3c2Cl)CC1 (stereo partly drawn) [Example 15, 9-[8-Chloro-7-(4-methyl-cyclohexyloxy)-naphthalen-2-ylmethyl]-9-aza-bicyclo[3.3.1]nonane-3-carboxylic acid]",≤ 0.1 µM
2,"C[C@H]1CC[C@@H](Oc2ccc3ccc(C(=O)N4C5CCC4CC(C(=O)O)C5)cc3c2C(F)(F)F)CC1 (relative stereo) [Example 24, 8-[7-(cis-4-methyl-cyclohexyloxy)-8-trifluoromethyl-naphthalene-2-carbonyl]-8-azabicyclo[3.2.1]octane-3-carboxylic acid]",≤ 0.25 µM
3,"C[C@H](c1ccc2ccc(O[C@H]3CC[C@@H](C)CC3)c(C(F)(F)F)c2c1)N1C2CCCC1CC(C(=O)O)C2 (single isomer, unassigned) [Example 5b]",≤ 0.1 µM
4,"CC[C@H]1CC[C@@H](Oc2ccc3ccc([C@@H](C)N4C5CCC4CC(C(=O)O)C5)cc3c2C(F)(F)F)CC1 (stereo partly drawn) [Example 144b, 8-((R)-1-(7-((cis-4-ethylcyclohexyl)oxy)-8-(trifluoromethyl)naphthalen-2-yl)ethyl)-8-azabicyclo[3.2.1]octane-3-carboxylic acid]",≤ 0.1 µM
5,"CC[C@H]1CC[C@@H](Oc2ccc3ccc(CN4C5CCC4CC(C(=O)O)C5)cc3c2C(F)(F)F)CC1 (stereo partly drawn) [Example 51, 8-((7-((cis-4-ethylcyclohexyl)oxy)-8-(trifluoromethyl)naphthalen-2-yl)methyl)-8-azabicyclo[3.2.1]octane-3-carboxylic acid]",≤ 0.1 µM
6,"[2H]C([2H])([2H])[C@@H](c1ccc2ccc(O[C@H]3CC[C@@H](C(F)(F)F)CC3)c(C(F)(F)F)c2c1)N1C2CCC1CC(C(=O)O)C2 (stereo partly drawn) [Example 46, 8-((S)-1-(8-(trifluoromethyl)-7-((cis-4-(trifluoromethyl)cyclohexyl)oxy)naphthalen-2-yl)-2,2,2-trideuteroethyl)-8-azabicyclo[3.2.1]octane-3-carboxylic acid]",≤ 0.1 µM
7,"CC(c1ccc2ccc(O[C@H]3CC[C@@H](C(F)(F)F)CC3)c(Cl)c2c1)N1C2CCCC1CC(C(=O)O)C2 (stereo partly drawn) [Example 30, 9-(1-(8-chloro-7-((cis-4-(trifluoromethyl)cyclohexyl)oxy)naphthalen-2-yl)ethyl)-9-azabicyclo[3.3.1]nonane-3-carboxylic acid]",≤ 0.25 µM
